Data on 33 compounds can be found in patent US20250340552A1, “COMPOUNDS, COMPOSITIONS AND METHODS OF TREATING DISORDERS” (HOTSPOT THERAPEUTICS, INC., priority 2022, published 2025).

The assay concerns the target T1, Cbl-B (Homo sapiens, UniProt Q13191).
T1 construct: MSD-Based Assay for Degradation of Cbl-B in THP-1 Cells; endogenous in cells; host or cells: THP-1 (title) / Jurkat (protocol text)
In words: MSD-based assay for degradation of Cbl-B in THP-1 cells. The format is cell-based. A digest of the protocol: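 Reported Dmax bins are A >70%, B 50–70%, C 30–50% and D <30%, from an electrochemiluminescence (MSD) sandwich assay of Cbl-B in cell lysates. THP-1 cells were exposed to compounds for 24 hours before lysis.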

Setting [1] is: Cbl-B degradation, Jurkat cells seeded (heading: THP-1 cells), 24 hours incubation, MSD readout.
The mark [2] stands for this setting: Cbl-B degradation, Jurkat cells seeded (heading: THP-1 cells), 24 hours incubation, MSD readout, read-out: Dmax.

Read-outs that look alike come from different tables or passages of the source. Bounds are passed on as bounds.

T1 sequence (Q13191 whole entry): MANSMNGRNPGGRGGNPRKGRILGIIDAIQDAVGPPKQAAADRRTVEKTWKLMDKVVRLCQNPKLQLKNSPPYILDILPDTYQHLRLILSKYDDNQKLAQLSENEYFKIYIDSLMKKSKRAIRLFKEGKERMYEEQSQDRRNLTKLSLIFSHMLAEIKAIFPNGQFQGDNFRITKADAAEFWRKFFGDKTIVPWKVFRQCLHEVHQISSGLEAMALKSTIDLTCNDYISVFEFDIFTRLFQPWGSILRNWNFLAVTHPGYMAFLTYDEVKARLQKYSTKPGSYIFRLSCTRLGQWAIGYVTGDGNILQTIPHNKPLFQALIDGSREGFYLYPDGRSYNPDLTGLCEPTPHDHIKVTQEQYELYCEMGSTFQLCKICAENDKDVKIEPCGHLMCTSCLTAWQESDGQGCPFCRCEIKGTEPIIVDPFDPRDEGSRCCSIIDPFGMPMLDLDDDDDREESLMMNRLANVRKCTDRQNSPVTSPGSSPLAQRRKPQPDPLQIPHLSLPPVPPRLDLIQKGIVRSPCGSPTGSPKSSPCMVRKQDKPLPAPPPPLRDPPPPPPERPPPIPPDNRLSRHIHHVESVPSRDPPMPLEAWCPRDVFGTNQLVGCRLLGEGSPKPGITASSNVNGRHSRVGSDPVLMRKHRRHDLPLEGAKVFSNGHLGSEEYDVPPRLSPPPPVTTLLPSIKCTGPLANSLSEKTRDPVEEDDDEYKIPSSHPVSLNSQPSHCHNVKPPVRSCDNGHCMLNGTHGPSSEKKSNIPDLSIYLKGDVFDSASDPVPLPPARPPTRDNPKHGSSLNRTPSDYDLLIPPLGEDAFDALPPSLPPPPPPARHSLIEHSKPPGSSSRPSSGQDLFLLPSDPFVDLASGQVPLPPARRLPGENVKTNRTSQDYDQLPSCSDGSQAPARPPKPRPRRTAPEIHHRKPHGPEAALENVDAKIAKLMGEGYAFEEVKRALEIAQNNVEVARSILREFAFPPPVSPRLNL

The DC50 is the concentration at which degradation of the target reaches its halfway point. A lower DC50 goes with degradation at low concentration. A word on the Dmax: it is the largest share of the target that was removed. With `CO[C@H]1C[C@](c2cccc(-n3cc4c(C(F)(F)F)cc(CN5CCC(OCCN6CCC(CN7CCN(c8ccc9c(c8)CN([C@H]8CCC(=O)NC8=O)C9=O)CC7)CC6)CC5)cn4c3=O)c2)(c2nncn2C)C1` [Compound 70], the DC50 under setting [1] lay in the range of 30 to 300 nM. Also, the greatest degradation seen (Dmax) under setting [2] fell in the range of 50 to 70%.

`CO[C@H]1C[C@@](c2cccc(-n3cc4c(C(F)(F)F)cc(CN5CCC(OCCN6CCC(CN7CCN(c8ccc9c(c8)CN([C@@H]8CCC(=O)NC8=O)C9=O)CC7)CC6)CC5)cn4c3=O)c2)(c2nncn2C)C1` [Compound 73] came in with a DC50 under setting [1] of 1000 to 10000 nM. For the same compound, the Dmax under setting [2] fell in the range of 30 to 50%.

In turn, `CO[C@H]1C[C@@](c2cccc(-n3cc4c(C(F)(F)F)cc(CN5CCC(OCCN6CCC(CN7CCN(c8ccc9c(c8)CN([C@H]8CCC(=O)NC8=O)C9=O)CC7)CC6)CC5)cn4c3=O)c2)(c2nncn2C)C1` [Compound 74] gave a DC50 under setting [1] of 1000 to 10000 nM. Also, the greatest degradation seen (Dmax) under setting [2] was in the range of 50 to 70%.

With `Cn1cnnc1CC1(c2cccc(N3Cc4c(cc(CN5CCC(OCCN6CCC(CN7CCN(c8ccc9c(c8)CN([C@H]8CCC(=O)NC8=O)C9=O)CC7)CC6)CC5)cc4C(F)(F)F)C3=O)c2)COC1` [Compound 76], under setting [1], the DC50 lay within 30 to 300 nM. Also, under setting [2], the Dmax fell in the range of 50 to 70%.

With `Cn1cnnc1[C@@H](c1cccc(-n2cc3c(C(F)(F)F)cc(CN4CCC[C@H](OCc5ccc(CN6CCN(c7ccc8c(c7)CN([C@H]7CCC(=O)NC7=O)C8=O)CC6)cc5)C4)cn3c2=O)c1)C1CCC1` [Compound 82], the DC50 under setting [1] is less than 30 nM.

Under setting [1], `Cn1cnnc1[C@@H](c1cccc(-n2cc3c(C(F)(F)F)cc(CN4CCC[C@@H](OCc5ccc(CN6CCN(c7ccc8c(c7)CN(C7CCC(=O)NC7=O)C8=O)CC6)cc5)C4)cn3c2=O)c1)C1CCC1` (stereo partly shown) [Compound 95] returned a DC50 of 30 to 300 nM.

Compound `Cn1cnnc1CC1(c2cccc(-n3cc4c(C(F)(F)F)cc(CN5CCC[C@@H](OCc6ccc(CN7CCN(c8ccc9c(c8)CN(C8CCC(=O)NC8=O)C9=O)CC7)cc6)C5)cn4c3=O)c2)COC1` (stereo partly shown) [Compound 96] showed a DC50 under setting [1] of 30 to 300 nM. Besides, the Dmax under setting [2] lay in the range of 30 to 50%.

For the compound `Cn1cnnc1[C@@H](c1cccc(-n2cc3c(C(F)(F)F)cc(-c4nccn4CCOCCN4CCC(CN5CCN(c6ccc7c(c6)CN([C@@H]6CCC(=O)NC6=O)C7=O)CC5)CC4)cn3c2=O)c1)C1CCC1` [Compound 97], under setting [1], the DC50 fell in the range of 1000 to 10000 nM. Besides, the Dmax under setting [2] lay within 30 to 50%.

Under setting [1], `Cn1cnnc1CC1(c2cccc(-n3cc4c(C(F)(F)F)cc(-c5nccn5CCOCCN5CCC(CN6CCN(c7ccc8c(c7)CN([C@@H]7CCC(=O)NC7=O)C8=O)CC6)CC5)cn4c3=O)c2)COC1` [Compound 99] returned a DC50 of more than 10000 nM. Besides, under setting [2], the Dmax was less than 30%.

Under setting [1], `Cn1cnnc1[C@@H](c1cccc(-n2cc3c(C(F)(F)F)cc(CN4CCC(COCc5ccc(CN6CCN(c7ccc8c(c7)CN([C@@H]7CCC(=O)NC7=O)C8=O)CC6)cc5)CC4)cn3c2=O)c1)C1CCC1` [Compound 101] came in with a DC50 of 30 to 300 nM. Under “THP-1”, this compound showed a Dmax of 50 to 70%.

`Cn1cnnc1[C@@H](c1cccc(-n2cc3c(C(F)(F)F)cc(CN4CCC(COCc5ccc(CN6CCN(c7ccc8c(c7)CN([C@H]7CCC(=O)NC7=O)C8=O)CC6)cc5)CC4)cn3c2=O)c1)C1CCC1` [Compound 102] had a half-maximal degradation concentration (DC50) under setting [1] of 30 to 300 nM. For the same compound, the Dmax under setting [2] is more than 70%.

In turn, `CN(CCO[C@@H]1CCCN(Cc2cc(C(F)(F)F)c3cn(-c4cccc([C@H](c5nncn5C)C5CCC5)c4)c(=O)n3c2)C1)C(=O)c1ccc(N2CCN(c3ccc4c(c3)CN([C@H]3CCC(=O)NC3=O)C4=O)CC2)cc1` [Compound 104] returned a 50% degradation concentration (DC50) under setting [1] of 30 to 300 nM.

`CN(CCO[C@H]1CCCN(Cc2cc(C(F)(F)F)c3cn(-c4cccc([C@H](c5nncn5C)C5CCC5)c4)c(=O)n3c2)C1)C(=O)c1ccc(N2CCN(c3ccc4c(c3)CN([C@H]3CCC(=O)NC3=O)C4=O)CC2)cc1` [Compound 106]: the DC50 under setting [1] was in the range of 300 to 1000 nM.

In turn, `Cn1cnnc1CC1(c2cccc(-n3cc4c(C(F)(F)F)cc(CN5CC(OCCN6CCC(CN7CCN(c8ccc9c(c8)CN(C8CCC(=O)NC8=O)C9=O)CC7)CC6)C5)cn4c3=O)c2)COC1` (stereo not shown) [Compound 113] gave a 50% degradation concentration (DC50) under setting [1] of more than 10000 nM. Where the note is “THP-1”, the Dmax was less than 30%.

Turning to `Cn1cnnc1[C@@H](c1cccc(-n2cc3c(C(F)(F)F)cc(CN4CC(OCCN5CCC(CN6CCN(c7ccc8c(c7)CN(C7CCC(=O)NC7=O)C8=O)CC6)CC5)C4)cn3c2=O)c1)C1CCC1` (stereo partly shown) [Compound 114], the DC50 under setting [1] is more than 10000 nM. For the same compound, under setting [2], the maximal degradation (Dmax) is less than 30%.

In turn, `Cn1cnnc1[C@@H](c1cccc(-n2cc3c(C(F)(F)F)cc(CN4CCC(OCCc5ccc(CN6CCN(c7ccc8c(c7)CN([C@H]7CCC(=O)NC7=O)C8=O)CC6)cc5)CC4)cn3c2=O)c1)C1CCC1` [Compound 116] came in with a DC50 under setting [1] of less than 30 nM. The Dmax under setting [2] was 50 to 70%.

Under setting [1], `Cn1cnnc1[C@@H](c1cccc(-n2cc3c(C(F)(F)F)cc(CN4CCN(C(=O)CN5CCC(CN6CCN(c7ccc8c(c7)CN([C@@H]7CCC(=O)NC7=O)C8=O)CC6)CC5)CC4)cn3c2=O)c1)C1CCC1` [Compound 129] came in with a DC50 of more than 10000 nM. Further, the Dmax under setting [2] is less than 30%.

`Cn1cnnc1[C@@H](c1cccc(-n2cc3c(C(F)(F)F)cc(CN4CCC(N5CCC(CN6CCN(c7ccc8c(c7)CN([C@H]7CCC(=O)NC7=O)C8=O)CC6)CC5)CC4)cn3c2=O)c1)C1CCC1` [Compound 136] displayed a DC50 under setting [1] of 30 to 300 nM.

With `CN(C(=O)c1ccc(N2CCN(c3ccc4c(c3)CN([C@@H]3CCC(=O)NC3=O)C4=O)CC2)cc1)C1CCN(Cc2cc(C(F)(F)F)c3cn(-c4cccc([C@H](c5nncn5C)C5CCC5)c4)c(=O)n3c2)CC1` [Compound 137], the DC50 under setting [1] fell in the range of 30 to 300 nM. The Dmax under setting [2] lay within 30 to 50%.

Compound `CN(C(=O)c1ccc(N2CCN(c3ccc4c(c3)CN([C@H]3CCC(=O)NC3=O)C4=O)CC2)cc1)C1CCN(Cc2cc(C(F)(F)F)c3cn(-c4cccc([C@H](c5nncn5C)C5CCC5)c4)c(=O)n3c2)CC1` [Compound 138] yielded a DC50 under setting [1] of 300 to 1000 nM. Further, the Dmax under setting [2] is less than 30%.

Take `Cn1cnnc1[C@@H](c1cccc(-n2cc3c(C(F)(F)F)cc(COCCCN4CCC(CN5CCN(c6ccc7c(c6)CN([C@H]6CCC(=O)NC6=O)C7=O)CC5)CC4)cn3c2=O)c1)C1CCC1` [Compound 150]: under setting [1], the DC50 is more than 10000 nM. The Dmax under setting [2] is less than 30%.

Under setting [1], `CN(CCOC1CCN(Cc2cc(C(F)(F)F)c3cn(-c4cccc([C@H](c5nncn5C)C5CCC5)c4)c(=O)n3c2)CC1)C(=O)c1ccc(N2CCC(c3ccc4c(c3)CN([C@@H]3CCC(=O)NC3=O)C4=O)CC2)cc1` [Compound 151] came in with a DC50 of 30 to 300 nM. Also, under setting [2], the Dmax is 50 to 70%.

The compound `CN(CCOC1CCN(Cc2cc(C(F)(F)F)c3cn(-c4cccc([C@H](c5nncn5C)C5CCC5)c4)c(=O)n3c2)CC1)C(=O)c1ccc(N2CCC(c3ccc4c(c3)CN([C@H]3CCC(=O)NC3=O)C4=O)CC2)cc1` [Compound 152] registered a DC50 under setting [1] of less than 30 nM. Besides, under setting [2], the Dmax is more than 70%.

Consider `CN(C(=O)c1ccc(CN2CCN(c3ccc4c(c3)CN([C@@H]3CCC(=O)NC3=O)C4=O)CC2)cc1)C1CCN(Cc2cc(C(F)(F)F)c3cn(-c4cccc([C@H](c5nncn5C)C5CCC5)c4)c(=O)n3c2)CC1` [Compound 159], for which the DC50 under setting [1] is more than 10000 nM. For the same compound, the Dmax (THP-1) was less than 30%.

On to `CN(C(=O)c1ccc(CN2CCN(c3ccc4c(c3)CN([C@H]3CCC(=O)NC3=O)C4=O)CC2)cc1)C1CCN(Cc2cc(C(F)(F)F)c3cn(-c4cccc([C@H](c5nncn5C)C5CCC5)c4)c(=O)n3c2)CC1` [Compound 160], for which the 50% degradation concentration (DC50) under setting [1] was less than 30 nM. The maximal degradation (Dmax) under setting [2] is more than 70%.

Compound `Cn1cnnc1[C@@H](c1cccc(-n2cc3c(C(F)(F)F)cc(CN4CCC(CCN5CCC(CC6CCN(c7ccc8c(c7)CN([C@@H]7CCC(=O)NC7=O)C8=O)CC6)CC5)CC4)cn3c2=O)c1)C1CCC1` [Compound 163] showed a DC50 under setting [1] of more than 10000 nM. The Dmax under setting [2] is less than 30%.

In the case of `Cn1cnnc1[C@@H](c1cccc(-n2cc3c(C(F)(F)F)cc(CN4CCC(CCN5CCC(CC6CCN(c7ccc8c(c7)CN([C@H]7CCC(=O)NC7=O)C8=O)CC6)CC5)CC4)cn3c2=O)c1)C1CCC1` [Compound 164], the DC50 under setting [1] is less than 30 nM. The Dmax under setting [2] is more than 70%.

For the compound `CN(CC1CCN(Cc2cc(C(F)(F)F)c3cn(-c4cccc(C5(Cc6nncn6C)COC5)c4)c(=O)n3c2)CC1)C(=O)c1ccc(N2CCN(c3ccc4c(c3)CN([C@@H]3CCC(=O)NC3=O)C4=O)CC2)cc1` [Compound 165], the DC50 under setting [1] fell in the range of 1000 to 10000 nM. Also, the Dmax under setting [2] lay within 30 to 50%.

Under setting [1], `CN(CC1CCN(Cc2cc(C(F)(F)F)c3cn(-c4cccc(C5(Cc6nncn6C)COC5)c4)c(=O)n3c2)CC1)C(=O)c1ccc(N2CCN(c3ccc4c(c3)CN([C@H]3CCC(=O)NC3=O)C4=O)CC2)cc1` [Compound 166] displayed a DC50 of less than 30 nM. Moreover, under setting [2], the Dmax is more than 70%.

Under setting [1], `CO[C@H]1C[C@@](c2cccc(-n3cc4c(C(F)(F)F)cc(CN5CCC(CN(C)C(=O)c6ccc(N7CCN(c8ccc9c(c8)CN([C@@H]8CCC(=O)NC8=O)C9=O)CC7)cc6)CC5)cn4c3=O)c2)(c2nncn2C)C1` [Compound 167] displayed a DC50 of 1000 to 10000 nM. The Dmax under setting [2] is less than 30%.

Regarding `CO[C@H]1C[C@](c2cccc(-n3cc4c(C(F)(F)F)cc(CN5CCC(CN(C)C(=O)c6ccc(N7CCN(c8ccc9c(c8)CN([C@@H]8CCC(=O)NC8=O)C9=O)CC7)cc6)CC5)cn4c3=O)c2)(c2nncn2C)C1` [Compound 168], the DC50 under setting [1] was more than 10000 nM. Further, the Dmax under setting [2] was less than 30%.

In turn, `CO[C@H]1C[C@@](c2cccc(-n3cc4c(C(F)(F)F)cc(CN5CCC(CN(C)C(=O)c6ccc(N7CCN(c8ccc9c(c8)CN([C@H]8CCC(=O)NC8=O)C9=O)CC7)cc6)CC5)cn4c3=O)c2)(c2nncn2C)C1` [Compound 169] returned a DC50 under setting [1] of 30 to 300 nM. Further, under setting [2], the Dmax was in the range of 30 to 50%.

In turn, `Cn1cnnc1[C@@H](c1cccc(-n2cc3c(C(F)(F)F)cc(CN4CCC(CC(=O)N5CCC(CC6CCN(c7ccc8c(c7)CN([C@@H]7CCC(=O)NC7=O)C8=O)CC6)CC5)CC4)cn3c2=O)c1)C1CCC1` [Compound 175] gave a DC50 under setting [1] of more than 10000 nM. In addition, the Dmax (THP-1) is less than 30%.
